Test results reported in the supplement of paper PMC10307832.

Tests used:
Test in all cases: relative viability (nuclei count vs DMSO), 5 days (fraction); higher = more cells survive
[1] = compound: COc1cc2nccc(Oc3ccc(NC(=O)C4(C(=O)Nc5ccc(F)cc5)CC4)cc3)c2cc1OC [Cabozantinib] + O=C(CCCCCCC(=O)Nc1ccccc1)NO [Vorinostat] (partner 1 µM)
How it was run: (§1)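 Five library-drug doses in √10 steps were combined with a fixed anchor-drug dose, or a single drug was given alone, by pin tool to lung cancer cell lines in 1536-well plates the day after seeding. Nuclei were stained and counted after 5 days. Relative viability is the nuclei count in treated wells over that in vehicle wells, taken as the median of duplicate plates.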

Zosuquidar + Tozasertib = compound: O[C@@H](COc1cccc2ncccc12)CN1CCN([C@@H]2c3ccccc3[C@@H]3[C@H](c4ccccc42)C3(F)F)CC1 [Zosuquidar] + Cc1cc(Nc2cc(N3CCN(C)CC3)nc(Sc3ccc(NC(=O)C4CC4)cc3)n2)n[nH]1 [Tozasertib] (partner 0.1 µM)
How it was run: as §1

Kobe2602 + Bortezomib = compound: C1=CC(=CC=C1NC(=S)NNC2=C(C=C(C=C2[N+](=O)[O-])C(F)(F)F)[N+](=O)[O-])F [Kobe2602] + CC(C)C[C@H](NC(=O)[C@H](Cc1ccccc1)NC(=O)c1cnccn1)B(O)O [Bortezomib] (partner 0.002 µM)
How it was run: as §1

Zosuquidar + Alpelisib = compound: O[C@@H](COc1cccc2ncccc12)CN1CCN([C@@H]2c3ccccc3[C@@H]3[C@H](c4ccccc42)C3(F)F)CC1 [Zosuquidar] + Cc1nc(NC(=O)N2CCC[C@H]2C(N)=O)sc1-c1ccnc(C(C)(C)C(F)(F)F)c1 [Alpelisib] (partner 2 µM)
How it was run: as §1

## UMC-11
[1]; first compound 0.02 µM
  relative viability: 0.302
[1]; first compound 0.06325 µM
  relative viability: 0.336
[1]; first compound 0.2 µM
  relative viability: 0.37
[1]; first compound 0.6325 µM
  relative viability: 0.323
[1]; first compound 2 µM
  relative viability: 0.332
Zosuquidar + Tozasertib; first compound 0.01 µM
  relative viability: 0.207
Zosuquidar + Tozasertib; first compound 0.03162 µM
  relative viability: 0.194
Zosuquidar + Tozasertib; first compound 0.1 µM
  relative viability: 0.201
Zosuquidar + Tozasertib; first compound 0.3162 µM
  relative viability: 0.208
Zosuquidar + Tozasertib; first compound 1 µM
  relative viability: 0.194
Kobe2602 + Bortezomib; first compound 0.2 µM
  relative viability: 0.779
Kobe2602 + Bortezomib; first compound 0.6325 µM
  relative viability: 0.819
Kobe2602 + Bortezomib; first compound 2 µM
  relative viability: 0.795
Kobe2602 + Bortezomib; first compound 6.325 µM
  relative viability: 0.628
Kobe2602 + Bortezomib; first compound 20 µM
  relative viability: 0.645
Zosuquidar + Alpelisib; first compound 0.01 µM
  relative viability: 0.877
Zosuquidar + Alpelisib; first compound 0.03162 µM
  relative viability: 1.03
Zosuquidar + Alpelisib; first compound 0.1 µM
  relative viability: 0.973
Zosuquidar + Alpelisib; first compound 0.3162 µM
  relative viability: 1.02
Zosuquidar + Alpelisib; first compound 1 µM
  relative viability: 0.961
